Test results published in patent publication US20220349875A1, “METHOD TO INDEPENDENTLY ANALYZE MULTIPLE BIOLOGICAL PROCESSES IN ENCAPSULATED 3D CELL CO-CULTURES” (UNIVERSITÉ DE GENÈVE, priority 2019, published 2022).

Experiments:
[1] = system: BC cells stably expressing the reporter zipGFP-Casp3; assay: Apoptosis of encapsulated BC cells (zipGFP-Casp3 reporter), monoculture or multi-culture with LC cells; assay type: cell-based; settings: micromolar Tamoxifen (1 μM to 10 μM), 96 hours, with vs without LC cells; FIG. 4
Experimental: Image acquisition was performed with an automated confocal microscope. Cell segmentation and quantification of cell fluorescence intensities were performed with the software MetaXpress (Molecular Devices). For the quantification of apoptosis, cell fluorescence intensities from far-red-labelled capsules were measured and the green fluorescence was normalized with the red fluorescence. […] Data is representative of 3 independent replicates.
Dispense capsules in wells of a 96-well imaging quality plate by continuously pipetting up and down to maintain the capsules in suspension before transferring the proper volume into the well.
Half of wells are not filled with LC capsules (conditions with BC cells only)
Incubate the plate at 37° C. for 96 hours.

[2] = system: BC cells stably expressing the dual-reporter FUCCI; assay: Proliferation of encapsulated BC cells (FUCCI dual reporter), monoculture or multi-culture with LC cells; assay type: cell-based; settings: micromolar Tamoxifen (1 μM to 10 μM), 96 hours; FIG. 5
From the text: LC cells were encapsulated in green-labelled alginate capsules, BC cells stably expressing the dual reporter gene FUCCI (active proliferating cells are green, not-proliferating cells (latent) are red) were encapsulated in unlabelled alginate capsules, and BC cells stably expressing the reporter gene zipGFP-Casp3 (all cells are red (reporter expression control) and cells become green upon apoptosis induction) were encapsulated in far-red-labelled alginate capsules. […] Image acquisition was performed with an automated confocal microscope. Cell segmentation and quantification of cell fluorescence intensities were performed with the software MetaXpress (Molecular Devices). For the quantification of proliferation, cell fluorescence intensities from unlabelled capsules were measured. […] Data is representative of 3 independent replicates.
Induction of apoptosis is measured by automated confocal microscopy (HCS) in BC cells stably expressing the reporter zipGFP-Casp3 and proliferation is measured at the same time in BC cells stably expressing the dual-reporter FUCCI. […]

Question: Which results are given for CC/C(=C(\c1ccccc1)c1ccc(OCCN(C)C)cc1)c1ccccc1 [Tamoxifen]?
Answer: induction of apoptosis in BC cells [1]: increased by Tamoxifen in a dose-dependent manner only in co-culture with LC cells; cell proliferation inhibition [2]: already maximal at 1 μM
